Test results: the NIST ThermoML archive (doi:10.1016/j.jct.2013.08.034)
Numbers after ± are expanded uncertainties.

Experiment: xn = mol fraction of the nth substance listed
Conditions: 101 kPa, Liquid; for electrical conductivity: Conductivity Meter Jenco 3107; for viscosity: Cone and plate viscometry; for mass density: Vibrating tube method

CC1COC(=O)O1 (centres undefined) [4-methyl-1,3-dioxolan-2-one] + CCCC[n+]1ccn(C)c1.O=S(=O)([N-]S(=O)(=O)C(F)(F)F)C(F)(F)F
Conditions | electrical conductivity [S/m] | mass density [kg/m3] | viscosity [mPa·s]
293.15 K, x2 = 0 | – | – | 2.86 ± 0.29
293.15 K, x2 = 0.0146 | – | 1216.01 ± 0.44 | –
293.15 K, x2 = 0.0296 | – | 1226.83 ± 0.44 | –
293.15 K, x2 = 0.0453 | – | 1237.53 ± 0.45 | –
293.15 K, x2 = 0.0502 | 0.792 ± 0.024 | – | –
293.15 K, x2 = 0.0616 | – | 1247.91 ± 0.46 | –
293.15 K, x2 = 0.0732 | – | 1254.92 ± 0.46 | –
293.15 K, x2 = 0.0997 | – | 1269.69 ± 0.47 | –
293.15 K, x2 = 0.1 | – | – | 4.74 ± 0.48
293.15 K, x2 = 0.1004 | 0.92 ± 0.028 | – | –
293.15 K, x2 = 0.2001 | 1.08 ± 0.032 | – | –
293.15 K, x2 = 0.2002 | – | – | 7.21 ± 0.72
293.15 K, x2 = 0.2004 | – | 1314.48 ± 0.5 | –
293.15 K, x2 = 0.3002 | 0.938 ± 0.028 | – | –
293.15 K, x2 = 0.3007 | – | – | 10.74 ± 1.1
293.15 K, x2 = 0.3081 | – | 1348.61 ± 0.53 | –
293.15 K, x2 = 0.3998 | – | – | 14.73 ± 1.5
293.15 K, x2 = 0.4004 | – | 1370.63 ± 0.55 | –
293.15 K, x2 = 0.4005 | 0.814 ± 0.024 | – | –
293.15 K, x2 = 0.5004 | – | – | 20.17 ± 2
293.15 K, x2 = 0.5007 | 0.752 ± 0.023 | – | –
293.15 K, x2 = 0.5021 | – | 1389.4 ± 0.57 | –
293.15 K, x2 = 0.5839 | – | 1401.58 ± 0.58 | –
293.15 K, x2 = 0.6002 | – | – | 26.37 ± 2.6
293.15 K, x2 = 0.6003 | 0.669 ± 0.02 | – | –
293.15 K, x2 = 0.6902 | – | 1414.42 ± 0.59 | –
293.15 K, x2 = 0.6979 | – | – | 33.56 ± 3.4
293.15 K, x2 = 0.6989 | 0.578 ± 0.017 | – | –
293.15 K, x2 = 0.7989 | – | 1424.99 ± 0.6 | –
293.15 K, x2 = 0.8001 | 0.497 ± 0.015 | – | –
293.15 K, x2 = 0.8015 | – | – | 42.09 ± 4.2
293.15 K, x2 = 0.8959 | 0.422 ± 0.013 | – | 50.34 ± 5.1
293.15 K, x2 = 0.898 | – | 1432.81 ± 0.61 | –
298.15 K, x2 = 0 | – | – | 2.65 ± 0.27
298.15 K, x2 = 0.0146 | – | 1210.26 ± 0.43 | –
298.15 K, x2 = 0.0296 | – | 1221.14 ± 0.44 | –
298.15 K, x2 = 0.0453 | – | 1231.8 ± 0.45 | –
298.15 K, x2 = 0.0502 | 0.899 ± 0.027 | – | –
298.15 K, x2 = 0.0616 | – | 1242.22 ± 0.45 | –
298.15 K, x2 = 0.0732 | – | 1249.22 ± 0.46 | –
298.15 K, x2 = 0.0997 | – | 1264.08 ± 0.46 | –
298.15 K, x2 = 0.1 | – | – | 4.29 ± 0.43
298.15 K, x2 = 0.1004 | 1.02 ± 0.03 | – | –
298.15 K, x2 = 0.2001 | 1.21 ± 0.036 | – | –
298.15 K, x2 = 0.2002 | – | – | 6.43 ± 0.65
298.15 K, x2 = 0.2004 | – | 1308.99 ± 0.5 | –
298.15 K, x2 = 0.3002 | 1.06 ± 0.032 | – | –
298.15 K, x2 = 0.3007 | – | – | 9.27 ± 0.93
298.15 K, x2 = 0.3081 | – | 1343.32 ± 0.53 | –
298.15 K, x2 = 0.3998 | – | – | 12.6 ± 1.3
298.15 K, x2 = 0.4004 | – | 1365.43 ± 0.55 | –
298.15 K, x2 = 0.4005 | 0.924 ± 0.028 | – | –
298.15 K, x2 = 0.5004 | – | – | 17.01 ± 1.7
298.15 K, x2 = 0.5007 | 0.855 ± 0.026 | – | –
298.15 K, x2 = 0.5021 | – | 1384.34 ± 0.56 | –
298.15 K, x2 = 0.5839 | – | 1396.54 ± 0.58 | –
298.15 K, x2 = 0.6002 | – | – | 21.71 ± 2.2
298.15 K, x2 = 0.6003 | 0.761 ± 0.023 | – | –
298.15 K, x2 = 0.6902 | – | 1409.46 ± 0.59 | –
298.15 K, x2 = 0.6979 | – | – | 27.64 ± 2.8
298.15 K, x2 = 0.6989 | 0.667 ± 0.02 | – | –
298.15 K, x2 = 0.7989 | – | 1420.01 ± 0.6 | –
298.15 K, x2 = 0.8001 | 0.581 ± 0.017 | – | –
298.15 K, x2 = 0.8015 | – | – | 34.76 ± 3.5
298.15 K, x2 = 0.8959 | 0.49 ± 0.015 | – | 40.95 ± 4.1
298.15 K, x2 = 0.898 | – | 1427.78 ± 0.6 | –
303.15 K, x2 = 0 | – | – | 2.44 ± 0.24
303.15 K, x2 = 0.0146 | – | 1205.11 ± 0.43 | –
303.15 K, x2 = 0.0296 | – | 1216.01 ± 0.44 | –
303.15 K, x2 = 0.0453 | – | 1226.7 ± 0.44 | –
303.15 K, x2 = 0.0502 | 0.963 ± 0.029 | – | –
303.15 K, x2 = 0.0616 | – | 1237.2 ± 0.45 | –
303.15 K, x2 = 0.0732 | – | 1244.2 ± 0.45 | –
303.15 K, x2 = 0.0997 | – | 1259.1 ± 0.46 | –
303.15 K, x2 = 0.1 | – | – | 3.84 ± 0.39
303.15 K, x2 = 0.1004 | 1.16 ± 0.035 | – | –
303.15 K, x2 = 0.2001 | 1.35 ± 0.041 | – | –
303.15 K, x2 = 0.2002 | – | – | 5.81 ± 0.58
303.15 K, x2 = 0.2004 | – | 1303.96 ± 0.5 | –
303.15 K, x2 = 0.3002 | 1.21 ± 0.036 | – | –
303.15 K, x2 = 0.3007 | – | – | 8.07 ± 0.81
303.15 K, x2 = 0.3081 | – | 1338.4 ± 0.52 | –
303.15 K, x2 = 0.3998 | – | – | 10.8 ± 1.1
303.15 K, x2 = 0.4004 | – | 1360.5 ± 0.54 | –
303.15 K, x2 = 0.4005 | 1.07 ± 0.032 | – | –
303.15 K, x2 = 0.5004 | – | – | 14.41 ± 1.4
303.15 K, x2 = 0.5007 | 0.963 ± 0.029 | – | –
303.15 K, x2 = 0.5021 | – | 1379.5 ± 0.56 | –
303.15 K, x2 = 0.5839 | – | 1391.7 ± 0.57 | –
303.15 K, x2 = 0.6002 | – | – | 18.4 ± 1.9
303.15 K, x2 = 0.6003 | 0.86 ± 0.026 | – | –
303.15 K, x2 = 0.6902 | – | 1404.6 ± 0.58 | –
303.15 K, x2 = 0.6979 | – | – | 22.9 ± 2.3
303.15 K, x2 = 0.6989 | 0.764 ± 0.023 | – | –
303.15 K, x2 = 0.7989 | – | 1415.1 ± 0.59 | –
303.15 K, x2 = 0.8001 | 0.665 ± 0.02 | – | –
303.15 K, x2 = 0.8015 | – | – | 28.81 ± 2.9
303.15 K, x2 = 0.8959 | 0.563 ± 0.017 | – | 33.59 ± 3.4
303.15 K, x2 = 0.898 | – | 1422.88 ± 0.6 | –
308.15 K, x2 = 0 | – | – | 2.23 ± 0.22
308.15 K, x2 = 0.0146 | – | 1199.79 ± 0.42 | –
308.15 K, x2 = 0.0296 | – | 1210.69 ± 0.43 | –
308.15 K, x2 = 0.0453 | – | 1221.41 ± 0.44 | –
308.15 K, x2 = 0.0502 | 1.05 ± 0.032 | – | –
308.15 K, x2 = 0.0616 | – | 1231.88 ± 0.44 | –
308.15 K, x2 = 0.0732 | – | 1238.89 ± 0.45 | –
308.15 K, x2 = 0.0997 | – | 1253.78 ± 0.45 | –
308.15 K, x2 = 0.1 | – | – | 3.51 ± 0.35
308.15 K, x2 = 0.1004 | 1.3 ± 0.039 | – | –
308.15 K, x2 = 0.2001 | 1.51 ± 0.045 | – | –
308.15 K, x2 = 0.2002 | – | – | 5.1 ± 0.51
308.15 K, x2 = 0.2004 | – | 1298.88 ± 0.49 | –
308.15 K, x2 = 0.3002 | 1.36 ± 0.041 | – | –
308.15 K, x2 = 0.3007 | – | – | 7.11 ± 0.71
308.15 K, x2 = 0.3081 | – | 1333.39 ± 0.52 | –
308.15 K, x2 = 0.3998 | – | – | 9.42 ± 0.95
308.15 K, x2 = 0.4004 | – | 1355.48 ± 0.54 | –
308.15 K, x2 = 0.4005 | 1.22 ± 0.037 | – | –
308.15 K, x2 = 0.5004 | – | – | 12.36 ± 1.2
308.15 K, x2 = 0.5007 | 1.1 ± 0.033 | – | –
308.15 K, x2 = 0.5021 | – | 1374.5 ± 0.56 | –
308.15 K, x2 = 0.5839 | – | 1386.81 ± 0.57 | –
308.15 K, x2 = 0.6002 | – | – | 15.75 ± 1.6
308.15 K, x2 = 0.6003 | 0.972 ± 0.029 | – | –
308.15 K, x2 = 0.6902 | – | 1399.67 ± 0.58 | –
308.15 K, x2 = 0.6979 | – | – | 19.44 ± 1.9
308.15 K, x2 = 0.6989 | 0.859 ± 0.026 | – | –
308.15 K, x2 = 0.8001 | 0.755 ± 0.023 | – | –
308.15 K, x2 = 0.8015 | – | – | 24.1 ± 2.4
308.15 K, x2 = 0.8959 | 0.642 ± 0.019 | – | 27.95 ± 2.8
